Columns and labels:
Assay in all cases: relative viability (nuclei count vs DMSO), 5 days (fraction); higher = more cells survive
[1] = tested on: EKVX
Procedure, shortened: (§1)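 Relative viability was taken as the ratio of nuclei in treated wells to nuclei in vehicle wells. Lung cancer cell lines in 1536-well plates received compounds by pin tool one day after seeding, either one drug alone or a fixed anchor-drug dose plus five library-drug doses (not always all listed) in √10 steps. Nuclei were counted on 4× images after 5 days of treatment, and values are medians of duplicate plates.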

[2] = tested on: HARA
Procedure, shortened: as §1

[3] = tested on: NCI-H647
Procedure, shortened: as §1

[4] = tested on: NCI-H1792
Procedure, shortened: as §1

[5] = tested on: NCI-H522
Procedure, shortened: as §1

[6] = tested on: NCI-H2405
Procedure, shortened: as §1

[7] = tested on: NCI-H358
Procedure, shortened: as §1

[8] = tested on: A-427
Procedure, shortened: as §1

[9] = tested on: NCI-H1755
Procedure, shortened: as §1

[10] = tested on: NCI-H1650
Procedure, shortened: as §1

[11] = tested on: LU99A
Procedure, shortened: as §1

[12] = tested on: HCC-44
Procedure, shortened: as §1

[13] = tested on: LK-2
Procedure, shortened: as §1

[14] = tested on: NCI-H460
Procedure, shortened: as §1

[15] = tested on: NCI-H1993
Procedure, shortened: as §1

[16] = tested on: RERF-LC-KJ
Procedure, shortened: as §1

[17] = tested on: NCI-H1734
Procedure, shortened: as §1

[18] = tested on: COR-L 105
Procedure, shortened: as §1

[19] = tested on: SW 900
Procedure, shortened: as §1

[20] = tested on: EPLC-272H
Procedure, shortened: as §1

[21] = tested on: EMC-BAC-2
Procedure, shortened: as §1

[22] = tested on: ChaGo-K-1
Procedure, shortened: as §1

[23] = tested on: NCI-H596
Procedure, shortened: as §1

CN1CCN(CCOc2cc(OC3CCOCC3)c3c(Nc4c(Cl)ccc5c4OCO5)ncnc3c2)CC1 [Saracatinib] + N=C(N)NC(=N)NCCc1ccccc1 [Phenformin] (partner 250 µM)
relative viability ([1]; first compound 0.02 µM): 0.26
relative viability ([1]; first compound 0.6325 µM): 0.211
relative viability ([1]; first compound 2 µM): 0.189
relative viability ([2]; first compound 0.02 µM): 0.54
relative viability ([2]; first compound 0.2 µM): 0.279
relative viability ([2]; first compound 0.6325 µM): 0.496
relative viability ([2]; first compound 2 µM): 0.24
relative viability ([3]; first compound 0.02 µM): 0.584
relative viability ([3]; first compound 0.2 µM): 0.362
relative viability ([3]; first compound 0.6325 µM): 0.5
relative viability ([3]; first compound 2 µM): 0.308
relative viability ([4]; first compound 0.02 µM): 0.258
relative viability ([4]; first compound 0.2 µM): 0.167
relative viability ([4]; first compound 0.6325 µM): 0.241
relative viability ([4]; first compound 2 µM): 0.405
relative viability ([5]; first compound 0.02 µM): 0.553
relative viability ([5]; first compound 0.6325 µM): 0.639
relative viability ([5]; first compound 2 µM): 0.612
relative viability ([6]; first compound 0.02 µM): 0.406
relative viability ([6]; first compound 0.2 µM): 0.328
relative viability ([6]; first compound 0.6325 µM): 0.304
relative viability ([6]; first compound 2 µM): 0.185
relative viability ([7]; first compound 0.02 µM): 0.37
relative viability ([7]; first compound 0.2 µM): 0.298
relative viability ([7]; first compound 0.6325 µM): 0.23
relative viability ([7]; first compound 2 µM): 0.171
relative viability ([8]; first compound 0.02 µM): 0.352
relative viability ([8]; first compound 0.2 µM): 0.273
relative viability ([8]; first compound 0.6325 µM): 0.281
relative viability ([8]; first compound 2 µM): 0.285
relative viability ([9]; first compound 0.02 µM): 0.665
relative viability ([9]; first compound 0.2 µM): 0.484
relative viability ([9]; first compound 0.6325 µM): 0.597
relative viability ([9]; first compound 2 µM): 0.478
relative viability ([10]; first compound 0.02 µM): 0.412
relative viability ([10]; first compound 0.2 µM): 0.253
relative viability ([10]; first compound 0.6325 µM): 0.317
relative viability ([10]; first compound 2 µM): 0.295
relative viability ([11]; first compound 0.02 µM): 0.938
relative viability ([11]; first compound 0.2 µM): 0.617
relative viability ([11]; first compound 0.6325 µM): 0.879
relative viability ([11]; first compound 2 µM): 0.707
relative viability ([12]; first compound 0.02 µM): 0.316
relative viability ([12]; first compound 0.2 µM): 0.227
relative viability ([12]; first compound 0.6325 µM): 0.333
relative viability ([12]; first compound 2 µM): 0.199
relative viability ([13]; first compound 0.02 µM): 0.545
relative viability ([13]; first compound 0.2 µM): 0.368
relative viability ([13]; first compound 0.6325 µM): 0.313
relative viability ([13]; first compound 2 µM): 0.314
relative viability ([14]; first compound 0.02 µM): 0.534
relative viability ([14]; first compound 0.2 µM): 0.382
relative viability ([14]; first compound 0.6325 µM): 0.491
relative viability ([14]; first compound 2 µM): 0.435
relative viability ([15]; first compound 0.02 µM): 0.524
relative viability ([15]; first compound 0.2 µM): 0.529
relative viability ([15]; first compound 0.6325 µM): 0.512
relative viability ([15]; first compound 2 µM): 0.555
relative viability ([16]; first compound 0.02 µM): 0.445
relative viability ([16]; first compound 0.2 µM): 0.401
relative viability ([16]; first compound 0.6325 µM): 0.313
relative viability ([16]; first compound 2 µM): 0.361
relative viability ([17]; first compound 0.02 µM): 0.375
relative viability ([17]; first compound 0.6325 µM): 0.375
relative viability ([17]; first compound 2 µM): 0.308
relative viability ([18]; first compound 0.02 µM): 0.586
relative viability ([18]; first compound 0.2 µM): 0.532
relative viability ([18]; first compound 0.6325 µM): 0.438
relative viability ([18]; first compound 2 µM): 0.256
relative viability ([19]; first compound 0.02 µM): 0.756
relative viability ([19]; first compound 0.2 µM): 0.36
relative viability ([19]; first compound 0.6325 µM): 0.493
relative viability ([19]; first compound 2 µM): 0.47
relative viability ([20]; first compound 0.02 µM): 0.285
relative viability ([20]; first compound 0.2 µM): 0.327
relative viability ([20]; first compound 0.6325 µM): 0.319
relative viability ([20]; first compound 2 µM): 0.251
relative viability ([21]; first compound 0.02 µM): 0.521
relative viability ([21]; first compound 0.2 µM): 0.432
relative viability ([21]; first compound 0.6325 µM): 0.418
relative viability ([21]; first compound 2 µM): 0.35
relative viability ([22]; first compound 0.02 µM): 0.564
relative viability ([22]; first compound 0.2 µM): 0.314
relative viability ([22]; first compound 0.6325 µM): 0.447
relative viability ([22]; first compound 2 µM): 0.381
relative viability ([23]; first compound 0.02 µM): 0.845
relative viability ([23]; first compound 0.2 µM): 0.625
relative viability ([23]; first compound 0.6325 µM): 0.689
relative viability ([23]; first compound 2 µM): 0.67
